Assay results as given in patent publication US9604932B2 (priority 2013, dated 2017).

What was measured:
Density of R-107 = type: physicochemical; design: unit not given here; settings: oil
[1] = test system: peripheral hypertension (HTN); experiment: Minipig model of peripheral hypertension; type: in vivo, minipigs; settings: protocol only; enterically-coated oral capsule
Method: In order to test the efficacy of R-107 in peripheral hypertension (HTN), a series of 3 hemodynamic studies is carried out in conscious, instrumented, ambulatory, and telemetered minipigs (n=5) with HTN secondary to an endovascular-created, unilateral, renovascular stenosis. Minipigs are treated with R-107 administered as an enterically-coated oral capsule.
In Series A, the pharmacokinetic profile and hemodynamic effect of a single administration of R-107 (3, 10, 20, 30 mg/kg) is correlated with a one-week washout period between successive dose levels. Animals are monitored for 24 hours to collect continuous hemodynamic data and intermittent plasma concentrations of R-107 and its metabolites (0, 0.25, 0.5, 0.75, 1, 2, 4, 6, 8, 12, 16, 20, and 24 hours). In Series B, the most promising 2 doses of R-107 from Series A are evaluated by carrying out a repeat-dose study of R-107 administered every 6 hours (q6h) for a period of 3 days. The hemodynamic effects of R-107 are correlated with plasma peak and trough concentrations of R-107 and its metabolites obtained q6h. In Series C, the emergence of tachyphylaxis to R-107 in a 2 week repeat-dose study (q6h) is evaluated utilizing the optimal dose determined in Series B, wherein hemodynamics are correlated with plasma pharmacokinetic determinations as in Series B.

[2] = test system: pulmonary hypertension of the newborn (PPHN); experiment: Lamb model of pulmonary hypertension of the newborn; type: in vivo, newborn lambs; settings: protocol only; 0.3, 1.0, 3.0 mg/kg/h IV
Method: In this study, a prospective, placebo-controlled, dose-escalation, randomized study is carried out in anesthetized, mechanically-ventilated, and muscle-relaxed newborn lambs wherein pulmonary hypertension of the newborn (PPHN) has been induced by in utero ligation of the ductus arteriosus. This clinically-relevant gold-standard model is characterized by severe PAH that is poorly responsive to inhaled nitric oxide (iNO), thus reflecting the 30-50% of clinical PPHN non-responders to clinical iNO therapy. R-107 (0, 0.3, 1.0, and 3.0 mg/kg/h IV; n=6 per group) is compared to iNO (40 ppm; n=6) over a 6 hour period of observation. Hemodynamic parameters are monitored for response to treatment and post-treatment rebound pulmonary arterial hypertension. The activity of R-107 is related to its plasma concentration, in order to construct a pharmacodynamic profile.

[3] = test system: retinal ischemia-reperfusion injury; experiment: Murine model of retinal ischemia-reperfusion injury; type: in vivo, C57BL/6 mice; settings: protocol only; 30 mg/kg/day IP BID
Method: In this study, the efficacy of R-107 in subacute murine model of retinal ischemia-reperfusion injury is tested, using male C57BL/6 mice (n=10 per group). Briefly, the anterior chamber of the right eye is cannulated with a 30 gauge needle attached to a line infusing sterile saline. The intraocular pressure (IOP) is raised to 110 mmHg by elevating the saline reservoir. The left eye undergoes sham surgery, in which the needle is inserted into the anterior chamber without elevating IOP. R-107 is injected (30 mg/kg/day IP BID) commencing directly before reperfusion. 2 vehicle controls (normal saline and HPCD) is compared to drug therapy. Treatments are repeated twice daily thereafter until sacrifice. The outcome of these pharmacologic studies is quantitatively assessed by using terminal deoxynucleotidyl transferase dUTP nick end labeling (TUNEL) to measure retinal cell death (after 3 days), confocal imaging to quantify survival of ganglion cell layer neurons (after 7 days), and electroretinogram recordings to measure retinal neuronal function (after 21 days).

[4] = Plasma pharmacokinetics in sheep (release of R-100 from R-107), LCMS; type: in vivo
Method: In the following two experiments, the pharmacokinetic of releasing R-100 from R-107, via R-105 that is the reduced form of R-100, was studied in vivo according to the protocol described herein.
100 μl aliquots plasma obtained from R-107-treated sheep or pig were thawed and 200 μl ice-cold ethanol was added to each 100 μl sample to precipitate protein. Samples were then vortexed, placed on ice for 10 minutes, and then spun down at room temperature for 15 minutes. A first 100 μl supernatant from each spun sample was withdrawn and placed in a labeled HPLC micro vial to which 300 μl MPA (LC mobile phase A) was added, and the vial contents were then mixed and submitted for LCMS analysis (kept at 4° C.). The concentration of R-107 was measured in this sample as was the concentration of R105. A second 100 μl supernatant from each spun sample was added to a labelled HPLC micro vial to which 300 μl MPA and 2 μl of Reducing solution (ascorbic acid, 1.0 mg/ml in water) were added. These vials were vortexed; incubated at 50° C. for 1 hour with gentle shaking; and were then cooled to 4° C. and submitted for LCMS analysis. This sample was analyzed for R105, i.e., reduced form of R-100, and the amount measured thus represents the sum of R-100 and R-105 originally present in the plasma. The concentration of R-100 can be calculated from that of the R-105 in the second sample minus that of R-105 in the first sample. However, the concentrations of R-105 were seen to be low (approximately 10% or less of those of R-100) and so the results reported below as R-100 are not corrected for R-105.
Sets of standards (R-100, R-105 and R-107) were prepared by spiking individually in pig plasma. 100 μl aliquots of these spiked plasma samples, after thawing, were included in the above extraction protocol.
Analysis method were carried out with an Agilent HPLC stack, with column eluate directed, via a diverter valve, into the source of an AB Sciex ‘Qstar Elite’ Hybrid TOF, high-resolution mass spectrometer. LC column: Phenomenex Kinetex C18 2.6u 100A, 2.1×50 mm. LC mobile phase A: H2O with 0.02% trifluoroacetic acid (TFA), 0.1% formic acid (HOF); Phase B: acetonitrile (ACN) with 0.02% TFA, 0.1% HOF. Mobile phase flow rate=500 μl/min. Injection size: 8 μl, via Agilent 1100 u-WPS autosampler. […]

[5] = Conversion of prodrug upon exposure to plasma, biological solutions and tissues; type: in vitro ADME; settings: stable oil until exposure to plasma

CC(=O)ON1C(C)(C)CC(CO[N+](=O)[O-])C1(C)C (stereo not shown) [R-107, 2,2,5,5-tetramethyl-3-(nitrooxymethyl)pyrrolidin-1-yl acetate]
Density (Density of R-107): 1.12
Efficacy in minipig model of peripheral hypertension [1]: Effective
Efficacy in lamb model of pulmonary hypertension of the newborn [2]: Effective
Efficacy in murine model of retinal ischemia-reperfusion injury [3]: Effective
R-100 in plasma ([4]; IM neat R-107 25 mg/kg, 48 hrs post dose): not detected
R-107 in plasma ([4]; IV neat R-107 25 mg/kg over 10 minutes, 2 hrs post dose): not detected
R-107 in plasma ([4]; IV neat R-107 25 mg/kg over 10 minutes, 4 hrs post dose): not detected
R-107 in plasma ([4]; IV neat R-107 25 mg/kg over 10 minutes, 6 hrs post dose): not detected
R-107 in plasma ([4]; IV neat R-107 25 mg/kg over 10 minutes, 8 hrs post dose): not detected
R-107 in plasma ([4]; IV neat R-107 25 mg/kg over 10 minutes, 24 hrs post dose): not detected
concentration at 0 h ([4]; plasma, IV neat R-107 25 mg/kg over 10 minutes, 0 hrs post dose): 0 ng/mL
concentration at 0.1 h ([4]; plasma, IV neat R-107 25 mg/kg over 10 minutes, 0.1 hrs post dose): 5500 ng/mL
concentration at 0.4 h ([4]; plasma, IV neat R-107 25 mg/kg over 10 minutes, 0.4 hrs post dose): 1210 ng/mL
concentration at 0.5 h ([4]; plasma, IV neat R-107 25 mg/kg over 10 minutes, 0.5 hrs post dose): 200 ng/mL
concentration at 1 h ([4]; plasma, IV neat R-107 25 mg/kg over 10 minutes, 1 hrs post dose): 0 ng/mL
Stability / conversion upon exposure to plasma [5]: readily converted to its corresponding 1-pyrrolidinyloxy derivative R-100
